Test [1] deals with T1, GST tagged LXRalpha LBD (ligand binding domain) (Homo sapiens, UniProt Q13133).
T1 construct: purchased Invitrogen pv4655
T1 sequence (Q13133 209-447 limits assumed): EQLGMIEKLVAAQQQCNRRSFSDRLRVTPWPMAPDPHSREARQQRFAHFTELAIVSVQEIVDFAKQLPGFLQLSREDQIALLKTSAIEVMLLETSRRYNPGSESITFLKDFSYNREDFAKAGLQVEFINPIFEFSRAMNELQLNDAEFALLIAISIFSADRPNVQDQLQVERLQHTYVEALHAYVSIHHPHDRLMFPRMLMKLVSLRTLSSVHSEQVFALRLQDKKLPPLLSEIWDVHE
Put plainly: LanthaScreen TR-FRET Liver X Receptor Coactivator Assay, LXR alpha-LBD (co-activator recruitment; IP and % Emax relative to T0901317). In kind it is biochemical. To be noted: for LXR alpha IP (nM) / EC50: Inflection Point of co-activator recruitment, LXR alpha-LBD, TR-FRET; for Emax: read-out: LXR alpha actiivty at max dose (%). The method, boiled down:
(§1)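 Potency as inflection point and efficacy as Emax come from compound-driven coactivator peptide recruitment, scaled to T0901317, using a terbium/fluorescein TR-FRET format after room-temperature incubation.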
On the technique in general: In TR-FRET formats the signal depends on donor and acceptor labels being close together.

Test [2] addresses T2, GST tagged LXRbeta LBD (ligand binding domain) (Homo sapiens, UniProt P55055).
T2 construct: purchased Invitrogen pv4658.pps
T2 sequence (P55055 222-460 limits assumed): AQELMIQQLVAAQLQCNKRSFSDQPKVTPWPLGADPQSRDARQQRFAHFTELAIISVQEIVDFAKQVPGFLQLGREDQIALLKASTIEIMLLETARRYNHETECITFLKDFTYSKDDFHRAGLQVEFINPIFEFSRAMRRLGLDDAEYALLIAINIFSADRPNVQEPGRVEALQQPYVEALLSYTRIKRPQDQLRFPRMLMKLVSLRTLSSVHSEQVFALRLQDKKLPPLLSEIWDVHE
The test can be described thus: LanthaScreen TR-FRET Liver X Receptor Coactivator Assay, LXR beta-LBD (co-activator recruitment; IP and % Emax relative to T0901317). In kind it is biochemical. The following applies: for EC50: Inflection Point of co-activator recruitment, LXR beta-LBD, TR-FRET; for Emax: read-out: LXR beta actiivty at max dose (%). The method, boiled down:
as §1

The mark [3] stands for this setting: efficacy at max dose in relation to reference T0901317, LXR alpha-LBD.
Where [4] appears, read: efficacy at max dose in relation to reference T0901317, LXR beta-LBD.

Broadly, the EC50 is the concentration needed to bring the measured effect to its halfway point. `CN(C)C(=O)c1ccc(N2CCC([C@@H]3C[C@H]3CNC(=O)[C@@](O)(c3ccccc3)C(F)(F)F)CC2)cc1Cl` [Example 15-18, 2-chloro-N,N-dimethyl-4-(4-((1S,2R)-2-(((S)-3,3,3-trifluoro-2-hydroxy-2-phenylpropanamido)methyl)cyclopropyl)piperidin-1-yl)benzamide]: in test [1], the “LXR alpha IP (nM)” value was “No IP”. In test [1] (setting [3]), the “LXR alpha actiivty at max dose (%)” value was found to be 8%. The compound further returned an EC50 in test [2] of 0.763 µM. Also, the “LXR beta actiivty at max dose (%)” value in test [2] (setting [4]) came out at 66%.
For `CN(C)C(=O)c1ccc(N2CCC([C@H]3C[C@H]3CN(C)C(=O)[C@](O)(c3cc(Cl)cc(Cl)c3)C(F)(F)F)CC2)nc1Cl` [Example 15-6, 2-chloro-6-(4-((1R,2R)-2-(((R)-2-(3,5-dichlorophenyl)-3,3,3-trifluoro-2-hydroxy-N-methylpropanamido)methyl)cyclopropyl)piperidin-1-yl)-N,N-dimethylnicotinamdie], in test [1], the “LXR alpha IP (nM)” value is given as “No IP”. For the same compound, the values for the Emax in test [1] (setting [3]) and in test [2] (setting [4]) were 4% and 29%, respectively. The same compound yielded an EC50 in test [2] of 0.009 µM.
In the case of `COc1cccc([C@@](O)(C(=O)N(C)CCCC2CCN(c3ccc(C(=O)N(C)C4CC4)c(Cl)n3)CC2)C(F)(F)F)c1` [Example 2-3, (R)-2-chloro-N-cyclopropyl-N-methyl-6-(4-(3-(3,3,3-trifluoro-2-hydroxy-2-(3-methoxyphenyl)-N-methylpropanamido)propyl)piperidin-1-yl)nicotinamide], the “LXR alpha IP (nM)” value in test [1] is recorded as “No IP”. The Emax amounted to 0% in test [1] (setting [3]) and 42% in test [2] (setting [4]). For the same compound, the EC50 in test [2] was 0.107 µM.
`CN(CC[C@H]1CC12CCN(c1ccc(C(=O)NC3CC3)c(Cl)c1)CC2)C(=O)[C@](O)(c1ccccc1)C(F)(F)F` [Example 7-11, 2-chloro-N-cyclopropyl-4-((R)-1-(2-((R)-3,3,3-trifluoro-2-hydroxy-N-methyl-2-phenylpropanamido)ethyl)-6-azaspiro[2.5]octan-6-yl)benzamide]: the values for the EC50 in test [1] and in test [2] were 1.15 µM and 0.081 µM, respectively. For the same compound, the Emax in test [1] (setting [3]) was 42%; in test [2] (setting [4]), 60%.
Take `COc1cccc([C@@](O)(C(=O)N(C)CCCC2CCN(c3ccc(C(=O)N4CCCC4)c(Cl)n3)CC2)C(F)(F)F)c1` [Example 2-6, (R)-N-(3-(1-(6-chloro-5-(pyrrolidine-1-carbonyl)pyridin-2-yl)piperidin-4-yl)propyl)-3,3,3-trifluoro-2-hydroxy-2-(3-methoxyphenyl)-N-methylpropanamide]: in test [1], the “LXR alpha IP (nM)” value is reported as “No IP”. For the same compound, the Emax in test [1] (setting [3]) stood at 0%; in test [2] (setting [4]) it was 50%. In addition, the EC50 in test [2] is 0.126 µM.
Turning to `CC(C)C(O)(C(=O)NCCCC1CCN(c2ccc(C(=O)N(C)C)c(Cl)n2)CC1)C(F)(F)F` (centres unmarked) [Example 5-7, 2-chloro-6-(4-(3-(2-hydroxy-3-methyl-2-(trifluoromethyl)butanamido)propyl)piperidin-1-yl)-N,N-dimethylnicotinamide], the “LXR alpha IP (nM)” value in test [1] is listed as “No IP”. For the same compound, the Emax was determined as 27% in test [1] (setting [3]) and 106% in test [2] (setting [4]). For the same compound, the half-maximal effective concentration (EC50) in test [2] came out at 0.636 µM.
Take `CN(C)C(=O)c1ccc(N2CCC(CCCNC(=O)[C@]3(c4ccccc4)CCCO3)CC2)nc1Cl` [Example 5-19, (R)-2-chloro-N,N-dimethyl-6-(4-(3-(2-phenyltetrahydrofuran-2-carboxamido)propyl)piperidin-1-yl)nicotinamide]: the EC50 was 2.34 µM in test [1] and 0.16 µM in test [2]. For the same compound, the Emax in test [1] (setting [3]) is 36%; in test [2] (setting [4]), 104%.
As to `COc1cccc([C@@](O)(C(=O)Nc2cccc(C3CCN(c4ccc(C(=O)N(C)C)c(Cl)n4)CC3)c2)C(F)(F)F)c1` [Example 10-4, (R)-2-chloro-N,N-dimethyl-6-(4-(3-(3,3,3-trifluoro-2-hydroxy-2-(3-methoxyphenyl)propanamido)phenyl)piperidin-1-yl)nicotinamide], the “LXR alpha IP (nM)” value in test [1] is recorded as “No IP”. For the same compound, the Emax in test [1] (setting [3]) worked out at 0%; in test [2] (setting [4]) it was 49%. Besides, in test [2], the EC50 turned out to be 0.649 µM.
For `COc1cccc([C@](O)(C(=O)N(C)C[C@@H]2C[C@@H]2CC2CCN(c3ccc(C(=O)N(C)C)c(Cl)n3)CC2)C(F)(F)F)c1` [Example 18-3, 2-chloro-N,N-dimethyl-6-(4-(((1S,2R)-2-(((S)-3,3,3-trifluoro-2-hydroxy-2-(3-methoxyphenyl)-N-methylpropanamido)methyl)cyclopropyl)methyl)piperidin-1-yl)nicotinamide], in that order: “No IP”, 0%, 25% and 0.518 µM.
The matching figures for `CN(C)C(=O)c1ccc(N2CCC(CCCN(C)C(=O)[C@@]3(c4ccccc4Cl)CCCO3)CC2)nc1Cl` [Example 1-64, (S)-2-chloro-6-(4-(3-(2-(2-chlorophenyl)-N-methyltetrahydrofuran-2-carboxamido)propyl)piperidin-1-yl)-N,N-dimethylnicotinamide]: “No IP”, 0%, 26% and 0.285 µM.
For the compound `CN(C)C(=O)c1ccc(N2CCC(CCCN(C)C(=O)[C@]3(c4ccccc4F)CCCO3)CC2)nc1Cl` [Example 1-6, (R)-2-chloro-6-(4-(3-(2-(2-fluorophenyl)-N-methyl-tetrahydrofuran-2-carboxamido)propyl)piperidin-1-yl)-N,N-dimethylnicotinamide], the results for the EC50 in test [1] and in test [2] were 1.46 µM and 0.064 µM, respectively. Besides, the Emax was 27% in test [1] (setting [3]) and 80% in test [2] (setting [4]).
Turning to `COc1cccc([C@@](O)(C(=O)N(C)CCCC2CCN(c3ccc(C(=O)N(C)C)c(Cl)n3)CC2)C(F)F)c1` [Example 1-53, (R)-2-chloro-6-(4-(3-(3,3-difluoro-2-hydroxy-2-(3-methoxyphenyl)-N-methylpropanamido)propyl)piperidin-1-yl)-N,N-dimethylnicotinamide], in test [1], the “LXR alpha IP (nM)” value is “No IP”. The Emax in test [1] (setting [3]) was 0%; in test [2] (setting [4]), 43%. The same compound returned an EC50 in test [2] of 0.58 µM.
The matching figures for `COc1cccc([C@@](O)(C(=O)N(C)CC2CC3(CCN(c4ccc(C(=O)N(C)C)c(Cl)n4)CC3)C2)C(F)(F)F)c1` [Example 14-1, 2-chloro-N,N-dimethyl-6-(2-(((R)-3,3,3-trifluoro-2-hydroxy-2-(3-methoxyphenyl)-N-methylpropanamido)methyl)-7-azaspiro[3.5]nonan-7-yl)nicotinamide]: “No IP”, 5%, 42% and 0.035 µM.
For `CN(C)C(=O)c1ccc(N2CCC(CCCN(C)C(=O)[C@@](O)(c3cccc(OC4CC4)c3)C(F)(F)F)CC2)nc1Cl` [Example 1-35, (S)-2-chloro-6-(4-(3-(2-(3-cyclopropoxyphenyl)-3,3,3-trifluoro-2-hydroxy-N-methylpropanamido)propyl)piperidin-1-yl)-N,N-dimethylnicotinamide], in that order: “No IP”, 14%, 46% and 0.437 µM.
As for `CC(C)[C@](O)(C(=O)N(C)CCCC1CCN(c2ccc(C(=O)N(C)C)c(Cl)n2)CC1)C(F)(F)F` [Example 1-4, (S)-2-chloro-6-(4-(3-(2-hydroxy-N,3-dimethyl-2-(trifluoromethyl)butanamido)propyl)piperidin-1-yl)-N,N-dimethylnicotinamide], the values for the EC50 in test [1] and in test [2] were 1.18 µM and 0.082 µM, respectively. The values for the Emax in test [1] (setting [3]) and in test [2] (setting [4]) were 52% and 92%, respectively.
The matching figures for `CN(C)C(=O)c1ccc(N2CCC(CCCN(C)C(=O)[C@@](O)(c3ccccc3)C3CCC3)CC2)nc1Cl` [Example 1-23, (S)-2-chloro-6-(4-(3-(2-cyclobutyl-2-hydroxy-N-methyl-2-phenylacetamido)propyl)piperidin-1-yl)-N,N-dimethylnicotinamide]: 1.76 µM, 0.064 µM, 39% and 90%.
The matching figures for `CN(C)C(=O)c1ccc(N2CCC(CCCN(C)C(=O)[C@@](O)(c3cccc(OC(F)(F)F)c3)C(F)(F)F)CC2)nc1Cl` [Example 1-39, (S)-2-chloro-N,N-dimethyl-6-(4-(3-(3,3,3-trifluoro-2-hydroxy-N-methyl-2-(3-(trifluoromethoxy)phenyl)propanamido)propyl)piperidin-1-yl)nicotinamide]: 11.1 µM, 0.567 µM, 34% and 53%.
